Assay results: ChEMBL document CHEMBL1201862, “PubChem BioAssay data set” (2004)
The source made the active and inactive calls.

What was measured:
Streptococcus = assay: Group A Streptococcus viability loss, dose response, counter-screen for streptokinase expression inhibitor project, luminescence, BacTiterGlo (AID 1915); type: functional, organism-based;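 note: potency for reduction of bacterial viability or growth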
[1] = biological target: T1, Ubiquitin-conjugating enzyme E2 N (Homo sapiens, UniProt P61088); type: functional
T1 sequence (P61088 whole entry): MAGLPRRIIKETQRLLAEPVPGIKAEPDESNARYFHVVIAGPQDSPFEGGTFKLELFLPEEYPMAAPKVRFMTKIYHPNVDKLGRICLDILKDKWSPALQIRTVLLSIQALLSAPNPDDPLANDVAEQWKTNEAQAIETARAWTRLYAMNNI

Bcl-2-related protein A1 [2] = biological target: T2, Bcl-2-related protein A1 (Mus musculus, UniProt Q07440); type: functional;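 note: confirmatory dose–response counterscreen on Bfl-1, used to check hits from a UBC13 polyubiquitin inhibitor campaign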
T2 sequence (Q07440 whole entry): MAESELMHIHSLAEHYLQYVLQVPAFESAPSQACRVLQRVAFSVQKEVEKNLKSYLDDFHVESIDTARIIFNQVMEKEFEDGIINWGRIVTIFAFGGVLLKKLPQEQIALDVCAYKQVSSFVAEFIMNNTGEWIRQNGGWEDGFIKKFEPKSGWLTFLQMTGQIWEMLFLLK

Streptokinase A = biological target: T3, Streptokinase A (Streptococcus pyogenes serotype M1, UniProt P10520); assay: S. pyogenes streptokinase expression inhibitors, potency, dose response, plasminogen activation absorbance, OD405 (AID 1914); type: functional, Streptococcus pyogenes M1 GAS;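 note: secreted streptokinase activity via plasminogen activation per viability signal from cell pellet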
T3 sequence (P10520 whole entry): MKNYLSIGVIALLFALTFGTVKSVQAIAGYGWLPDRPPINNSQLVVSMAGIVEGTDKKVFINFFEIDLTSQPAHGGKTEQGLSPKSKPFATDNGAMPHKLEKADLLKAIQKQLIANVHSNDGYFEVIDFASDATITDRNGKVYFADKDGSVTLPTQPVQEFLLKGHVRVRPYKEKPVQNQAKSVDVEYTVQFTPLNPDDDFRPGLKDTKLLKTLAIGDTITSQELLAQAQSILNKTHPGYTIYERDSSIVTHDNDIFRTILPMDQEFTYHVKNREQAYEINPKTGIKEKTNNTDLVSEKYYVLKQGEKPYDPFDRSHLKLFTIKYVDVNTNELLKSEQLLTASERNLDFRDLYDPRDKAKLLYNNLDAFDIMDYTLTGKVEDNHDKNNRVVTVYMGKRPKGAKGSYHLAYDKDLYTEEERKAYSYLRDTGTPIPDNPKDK

[3] = biological target: T1, Ubiquitin-conjugating enzyme E2 N; type: functional; remark: listed apart in the source
[4] = system: Streptococcus sp. 'group A'; assay: growth inhibition of control SK(-) GAS strain, dose response, counter-screen for streptokinase expression inhibitor project, luminescence, kanamycin, BacTiterGlo, confirmation (AID 1900); type: functional, organism-based
Bcl-2-related protein A1 [5] = biological target: T2, Bcl-2-related protein A1; assay: Bfl-1 binding inhibitors, SAR follow-up, biochemical, fluorescence polarization (AID 1070)
Tumor necrosis factor = Tumor necrosis factor (Homo sapiens, UniProt P01375); assay: TNFa-triggered NF-kB activation inhibitors, SAR follow-up, cell-based, set 3 (AID 2801); type: functional
[6] = biological target: Nucleotide-binding oligomerization domain-containing protein 2 (Homo sapiens, UniProt Q9HC29); assay: NOD2 signaling inhibitors, analog potency, SAR follow-up, cell-based, set 3 (AID 2799); type: functional
Bcl-2-related protein A1 [7] = biological target: T2, Bcl-2-related protein A1; assay: Bfl-1 inhibitors blocking BH3 peptide binding, confirmation, biochemical, TR-FRET, mouse Bfl-1 (AID 621);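 note: TR-FRET binding of GST-Bfl-1 to FITC-labelled Bid peptide via terbium antibody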
[8] = biological target: Glyceraldehyde-3-phosphate dehydrogenase (Homo sapiens, UniProt P04406)
HEK293 = assay: SAR analysis of compounds that are cytotoxic to HEK293 - Set 3. [Related pubchem assays (depositor defined):AID1575, AID1578, AID1848, AID1849, AID2001, AID2333, AID2334, AID2335, AID2337, AID2469]; type: functional, cell-based; conditions: Homo sapiens
[9] = biological target: T4, Nucleotide-binding oligomerization domain-containing protein 1 (Homo sapiens, UniProt Q9Y239); assay: SAR analysis of compounds that inhibit NOD1 - Set 3. [Related pubchem assays (depositor defined):AID1566, AID1575, AID1578, AID1849, AID1852, AID2333, AID2335, AID2466]; type: functional
T4 sequence (Q9Y239 whole entry): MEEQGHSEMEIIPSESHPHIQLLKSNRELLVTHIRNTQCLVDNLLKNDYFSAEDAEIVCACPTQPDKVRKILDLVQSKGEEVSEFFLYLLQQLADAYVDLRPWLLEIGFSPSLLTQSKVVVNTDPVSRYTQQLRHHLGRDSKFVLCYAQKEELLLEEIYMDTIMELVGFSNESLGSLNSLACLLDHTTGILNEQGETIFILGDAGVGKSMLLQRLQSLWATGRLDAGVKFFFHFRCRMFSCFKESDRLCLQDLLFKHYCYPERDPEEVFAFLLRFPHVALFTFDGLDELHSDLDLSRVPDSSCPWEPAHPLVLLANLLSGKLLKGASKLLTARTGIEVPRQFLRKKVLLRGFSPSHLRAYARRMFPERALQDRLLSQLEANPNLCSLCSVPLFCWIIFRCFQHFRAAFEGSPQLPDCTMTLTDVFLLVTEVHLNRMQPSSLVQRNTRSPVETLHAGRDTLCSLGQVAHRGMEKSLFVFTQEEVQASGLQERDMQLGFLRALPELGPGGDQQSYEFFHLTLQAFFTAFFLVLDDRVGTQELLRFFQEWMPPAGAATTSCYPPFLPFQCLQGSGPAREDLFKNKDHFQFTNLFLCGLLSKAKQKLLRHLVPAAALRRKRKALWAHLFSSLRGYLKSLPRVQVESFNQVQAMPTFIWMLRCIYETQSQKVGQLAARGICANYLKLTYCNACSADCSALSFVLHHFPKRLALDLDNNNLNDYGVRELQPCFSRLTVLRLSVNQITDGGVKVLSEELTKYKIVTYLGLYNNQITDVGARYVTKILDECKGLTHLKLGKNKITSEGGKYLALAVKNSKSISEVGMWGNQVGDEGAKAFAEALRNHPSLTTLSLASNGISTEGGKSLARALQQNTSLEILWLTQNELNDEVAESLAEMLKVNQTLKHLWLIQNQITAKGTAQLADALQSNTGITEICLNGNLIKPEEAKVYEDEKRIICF

[10] = growth suppression of beta-catenin-knockout colon cells, dose response, cell-based, HCT116, human colon tumor (AID 1045); type: functional;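 note: HCT116 colon tumor cells with beta catenin knocked out; cells exposed to compound for 60 hours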
[11] = biological target: T5, Dual specificity protein phosphatase 3 (Homo sapiens, UniProt P51452); assay: VHR1 phosphatase inhibitors, biochemical (AID 1878)
[12] = biological target: T5, Dual specificity protein phosphatase 3; assay: VHR1 phosphatase inhibitors, primary screen, biochemical, absorbance, uHTS (AID 1654)
[13] = biological target: T6, Dual specificity protein phosphatase 6 (Rattus norvegicus, UniProt Q64346); assay: MKP-3 phosphatase inhibitors, primary screen, biochemical, rat enzyme, in vitro (AID 425)
T6 sequence (Q64346 whole entry): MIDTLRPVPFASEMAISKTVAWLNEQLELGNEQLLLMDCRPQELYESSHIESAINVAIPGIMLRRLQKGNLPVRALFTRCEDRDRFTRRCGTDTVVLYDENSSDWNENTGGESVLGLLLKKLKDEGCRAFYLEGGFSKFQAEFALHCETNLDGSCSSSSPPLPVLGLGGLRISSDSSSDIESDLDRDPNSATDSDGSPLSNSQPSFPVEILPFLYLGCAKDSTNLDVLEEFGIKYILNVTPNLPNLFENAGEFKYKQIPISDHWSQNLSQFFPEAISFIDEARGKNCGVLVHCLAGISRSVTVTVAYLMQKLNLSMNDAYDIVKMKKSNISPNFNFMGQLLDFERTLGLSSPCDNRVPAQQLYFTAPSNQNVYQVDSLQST

[14] = biological target: Tyrosine-protein phosphatase non-receptor type 11 (Homo sapiens, UniProt Q06124); assay: SHP2 phosphatase inhibition, dose response, selectivity assay for STEP inhibitor project, biochemical (AID 602367); type: functional; conditions: read-out: IC50_Mean
[15] = biological target: Tyrosine-protein phosphatase non-receptor type 5 (Homo sapiens, UniProt P54829); assay: STEP phosphatase inhibitors, confirmation, biochemical, fluorescence intensity, uHTS hits (AID 602372); type: functional; conditions: read-out: IC50_Mean
[16] = biological target: T5, Dual specificity protein phosphatase 3; assay: VHR phosphatase inhibition, dose response, selectivity assay for STEP inhibitor project, biochemical (AID 602374); type: functional; conditions: read-out: IC50_Mean
[17] = biological target: T7, Low molecular weight phosphotyrosine protein phosphatase (Homo sapiens, UniProt P24666); type: functional; conditions: read-out: IC50_Mean
T7 sequence (P24666 whole entry): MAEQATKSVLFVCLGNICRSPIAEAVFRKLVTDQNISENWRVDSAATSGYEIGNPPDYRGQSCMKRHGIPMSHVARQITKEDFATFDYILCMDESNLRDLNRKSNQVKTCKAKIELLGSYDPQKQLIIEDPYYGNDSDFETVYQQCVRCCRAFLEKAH

[18] = growth suppression of PTEN-null colon cells, dose response, cell-based, HCT116 PTEN knockout (AID 1047); type: functional;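 note: HCT116 colon tumor cells with PTEN knocked out; cells exposed to compound for 60 hours before readout; potency for loss of cell viability measured by luminescence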
[19] = biological target: T7, Low molecular weight phosphotyrosine protein phosphatase; type: functional; conditions: read-out: IC50_Mean; remark: listed apart in the source
[20] = biological target: T8, Tyrosine-protein phosphatase non-receptor type 22 (Homo sapiens, UniProt Q9Y2R2); type: functional
T8 sequence (Q9Y2R2 whole entry): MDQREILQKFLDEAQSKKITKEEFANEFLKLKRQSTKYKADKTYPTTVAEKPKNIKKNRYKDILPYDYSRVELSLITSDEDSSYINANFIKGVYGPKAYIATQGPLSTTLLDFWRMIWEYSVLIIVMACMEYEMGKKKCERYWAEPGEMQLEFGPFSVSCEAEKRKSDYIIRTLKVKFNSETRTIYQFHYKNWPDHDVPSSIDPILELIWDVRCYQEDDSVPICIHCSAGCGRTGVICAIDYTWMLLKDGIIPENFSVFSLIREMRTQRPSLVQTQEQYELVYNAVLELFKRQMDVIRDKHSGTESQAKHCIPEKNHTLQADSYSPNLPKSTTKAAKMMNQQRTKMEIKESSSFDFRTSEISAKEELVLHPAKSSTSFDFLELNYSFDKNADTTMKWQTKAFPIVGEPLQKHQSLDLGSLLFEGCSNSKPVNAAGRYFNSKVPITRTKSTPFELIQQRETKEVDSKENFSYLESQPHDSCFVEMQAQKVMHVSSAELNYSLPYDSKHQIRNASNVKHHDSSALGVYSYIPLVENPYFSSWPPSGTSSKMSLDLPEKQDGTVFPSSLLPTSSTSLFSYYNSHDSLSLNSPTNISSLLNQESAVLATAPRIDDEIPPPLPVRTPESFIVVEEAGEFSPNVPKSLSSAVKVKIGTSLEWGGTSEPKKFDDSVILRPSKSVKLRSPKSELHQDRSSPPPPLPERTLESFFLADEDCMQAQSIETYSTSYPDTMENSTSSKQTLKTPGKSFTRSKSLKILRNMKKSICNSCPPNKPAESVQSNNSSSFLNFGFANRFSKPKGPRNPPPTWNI

[21] = biological target: T9, Tyrosine-protein phosphatase non-receptor type 7 (Homo sapiens, UniProt P35236); type: functional
T9 sequence (P35236 whole entry): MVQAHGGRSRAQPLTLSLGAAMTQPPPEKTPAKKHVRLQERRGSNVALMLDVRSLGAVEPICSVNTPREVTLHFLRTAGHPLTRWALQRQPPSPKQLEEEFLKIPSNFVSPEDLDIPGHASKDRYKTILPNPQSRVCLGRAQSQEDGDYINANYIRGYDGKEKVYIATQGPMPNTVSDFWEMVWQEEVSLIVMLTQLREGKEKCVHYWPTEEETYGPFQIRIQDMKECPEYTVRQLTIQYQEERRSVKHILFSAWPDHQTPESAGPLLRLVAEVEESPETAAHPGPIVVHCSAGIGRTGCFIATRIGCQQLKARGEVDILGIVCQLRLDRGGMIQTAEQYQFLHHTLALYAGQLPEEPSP

[22] = biological target: T8, Tyrosine-protein phosphatase non-receptor type 22; type: functional; remark: listed apart in the source
[23] = biological target: Signal transducer and activator of transcription 3 (Homo sapiens, UniProt P40763); assay: STAT3 inhibitors, late-stage profile, late-stage follow-up, cell-based, STAT1 panel, qPCR, cytotoxicity, panel member STAT3 Inhibition (AID 2078)
[24] = biological target: Signal transducer and activator of transcription 1-alpha/beta (Homo sapiens, UniProt P42224); assay: STAT3 inhibitors, late-stage profile, late-stage follow-up, cell-based, STAT1 panel, qPCR, cytotoxicity, panel member STAT1 Inhibition (AID 2078)
[25] = biological target: Voltage-dependent T-type calcium channel subunit alpha-1H (Homo sapiens, UniProt O95180); assay: Cav3.2 T-type channel blockers, cell-based, SynthLib3 library, HEK293 Cav3.2, fluorescence (AID 493041); type: functional
Chain of Voltage-dependent T-type calcium channel subunit alpha-1H (O95180 whole entry): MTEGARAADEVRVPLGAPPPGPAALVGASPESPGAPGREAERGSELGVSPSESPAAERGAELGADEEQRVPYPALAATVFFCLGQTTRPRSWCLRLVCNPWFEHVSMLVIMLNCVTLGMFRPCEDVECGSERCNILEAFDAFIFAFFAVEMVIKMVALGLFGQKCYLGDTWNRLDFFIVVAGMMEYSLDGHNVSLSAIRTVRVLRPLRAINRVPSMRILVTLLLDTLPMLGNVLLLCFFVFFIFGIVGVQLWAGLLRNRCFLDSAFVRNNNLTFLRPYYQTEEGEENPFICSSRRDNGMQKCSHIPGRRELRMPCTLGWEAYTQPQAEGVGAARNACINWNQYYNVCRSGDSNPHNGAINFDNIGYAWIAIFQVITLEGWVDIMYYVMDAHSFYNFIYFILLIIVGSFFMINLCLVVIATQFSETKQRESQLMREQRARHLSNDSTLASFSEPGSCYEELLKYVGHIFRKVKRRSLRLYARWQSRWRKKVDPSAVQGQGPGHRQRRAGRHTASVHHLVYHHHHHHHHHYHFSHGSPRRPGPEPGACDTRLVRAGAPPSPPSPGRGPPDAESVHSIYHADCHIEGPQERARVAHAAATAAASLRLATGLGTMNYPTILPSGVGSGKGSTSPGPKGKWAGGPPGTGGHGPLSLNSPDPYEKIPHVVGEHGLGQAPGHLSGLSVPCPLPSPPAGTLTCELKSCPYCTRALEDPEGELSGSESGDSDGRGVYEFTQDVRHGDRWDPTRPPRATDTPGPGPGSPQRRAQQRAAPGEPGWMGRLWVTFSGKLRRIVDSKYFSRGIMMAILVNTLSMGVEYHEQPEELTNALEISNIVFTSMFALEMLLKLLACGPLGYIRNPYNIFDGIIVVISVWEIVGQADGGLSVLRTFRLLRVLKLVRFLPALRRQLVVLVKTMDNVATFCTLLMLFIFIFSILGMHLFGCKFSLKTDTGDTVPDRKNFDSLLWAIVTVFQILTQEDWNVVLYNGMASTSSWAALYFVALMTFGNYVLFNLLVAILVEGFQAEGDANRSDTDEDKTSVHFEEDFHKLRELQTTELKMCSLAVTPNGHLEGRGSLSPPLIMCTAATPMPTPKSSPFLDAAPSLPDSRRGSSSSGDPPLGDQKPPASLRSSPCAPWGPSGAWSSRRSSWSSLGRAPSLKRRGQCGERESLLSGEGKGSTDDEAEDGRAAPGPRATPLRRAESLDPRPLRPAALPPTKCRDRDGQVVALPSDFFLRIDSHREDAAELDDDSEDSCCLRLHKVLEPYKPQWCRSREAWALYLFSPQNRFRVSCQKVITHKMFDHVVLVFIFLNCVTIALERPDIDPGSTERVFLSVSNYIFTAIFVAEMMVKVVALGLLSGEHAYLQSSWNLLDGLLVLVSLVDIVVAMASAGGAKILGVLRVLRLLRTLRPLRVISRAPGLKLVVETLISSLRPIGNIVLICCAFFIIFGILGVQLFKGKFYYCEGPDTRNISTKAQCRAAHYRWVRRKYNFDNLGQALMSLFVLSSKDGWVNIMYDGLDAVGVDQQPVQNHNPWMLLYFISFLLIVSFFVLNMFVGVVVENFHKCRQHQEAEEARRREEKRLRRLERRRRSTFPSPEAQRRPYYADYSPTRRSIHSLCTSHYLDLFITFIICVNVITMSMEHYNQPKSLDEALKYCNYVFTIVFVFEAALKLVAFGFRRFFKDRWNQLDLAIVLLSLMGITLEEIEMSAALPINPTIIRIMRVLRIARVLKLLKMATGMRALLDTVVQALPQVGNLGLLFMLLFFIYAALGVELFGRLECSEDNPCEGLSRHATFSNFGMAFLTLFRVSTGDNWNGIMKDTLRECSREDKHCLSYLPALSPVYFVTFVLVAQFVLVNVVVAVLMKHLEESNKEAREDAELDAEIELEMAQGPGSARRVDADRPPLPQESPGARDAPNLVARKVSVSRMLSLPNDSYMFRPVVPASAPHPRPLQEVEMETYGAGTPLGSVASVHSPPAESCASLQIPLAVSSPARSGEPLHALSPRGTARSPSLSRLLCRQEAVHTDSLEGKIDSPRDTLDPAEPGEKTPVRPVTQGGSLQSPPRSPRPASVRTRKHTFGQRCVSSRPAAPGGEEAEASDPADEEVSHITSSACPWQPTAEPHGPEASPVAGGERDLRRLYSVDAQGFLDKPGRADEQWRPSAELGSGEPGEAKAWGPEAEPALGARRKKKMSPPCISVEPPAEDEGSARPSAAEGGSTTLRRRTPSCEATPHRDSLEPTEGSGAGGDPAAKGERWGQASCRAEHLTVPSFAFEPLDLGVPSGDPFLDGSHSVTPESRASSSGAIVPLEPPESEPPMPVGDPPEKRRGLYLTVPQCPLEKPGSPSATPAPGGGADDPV

T5 sequence (P51452 whole entry): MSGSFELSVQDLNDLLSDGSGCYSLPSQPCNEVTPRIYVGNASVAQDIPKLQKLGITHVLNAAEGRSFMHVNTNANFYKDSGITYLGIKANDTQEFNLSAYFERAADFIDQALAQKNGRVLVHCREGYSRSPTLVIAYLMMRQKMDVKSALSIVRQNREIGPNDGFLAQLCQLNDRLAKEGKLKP
Chain of Tumor necrosis factor (P01375 whole entry, the tested form may be a part): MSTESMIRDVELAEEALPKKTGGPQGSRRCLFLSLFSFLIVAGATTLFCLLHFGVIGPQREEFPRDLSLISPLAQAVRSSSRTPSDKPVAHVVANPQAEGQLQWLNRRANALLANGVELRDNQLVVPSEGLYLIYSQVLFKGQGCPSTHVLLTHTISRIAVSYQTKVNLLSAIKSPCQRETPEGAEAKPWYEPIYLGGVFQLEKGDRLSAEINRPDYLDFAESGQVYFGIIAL
Chain of Tyrosine-protein phosphatase non-receptor type 11 (Q06124 whole entry): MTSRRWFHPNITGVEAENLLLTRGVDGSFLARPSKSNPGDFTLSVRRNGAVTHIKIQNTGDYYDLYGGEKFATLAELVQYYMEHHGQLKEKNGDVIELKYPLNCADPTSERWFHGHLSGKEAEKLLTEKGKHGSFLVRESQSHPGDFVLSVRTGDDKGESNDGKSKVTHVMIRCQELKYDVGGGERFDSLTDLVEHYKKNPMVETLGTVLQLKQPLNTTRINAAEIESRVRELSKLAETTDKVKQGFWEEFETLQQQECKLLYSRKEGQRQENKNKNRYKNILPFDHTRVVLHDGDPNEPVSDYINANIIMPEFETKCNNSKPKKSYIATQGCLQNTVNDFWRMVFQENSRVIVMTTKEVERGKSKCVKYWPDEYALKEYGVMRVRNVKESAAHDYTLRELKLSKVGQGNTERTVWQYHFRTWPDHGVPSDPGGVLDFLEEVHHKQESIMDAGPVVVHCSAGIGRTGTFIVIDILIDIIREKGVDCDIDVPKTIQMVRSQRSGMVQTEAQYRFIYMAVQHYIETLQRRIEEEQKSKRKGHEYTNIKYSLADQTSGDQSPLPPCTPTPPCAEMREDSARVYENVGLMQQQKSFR
Chain of Signal transducer and activator of transcription 3 (P40763 whole entry): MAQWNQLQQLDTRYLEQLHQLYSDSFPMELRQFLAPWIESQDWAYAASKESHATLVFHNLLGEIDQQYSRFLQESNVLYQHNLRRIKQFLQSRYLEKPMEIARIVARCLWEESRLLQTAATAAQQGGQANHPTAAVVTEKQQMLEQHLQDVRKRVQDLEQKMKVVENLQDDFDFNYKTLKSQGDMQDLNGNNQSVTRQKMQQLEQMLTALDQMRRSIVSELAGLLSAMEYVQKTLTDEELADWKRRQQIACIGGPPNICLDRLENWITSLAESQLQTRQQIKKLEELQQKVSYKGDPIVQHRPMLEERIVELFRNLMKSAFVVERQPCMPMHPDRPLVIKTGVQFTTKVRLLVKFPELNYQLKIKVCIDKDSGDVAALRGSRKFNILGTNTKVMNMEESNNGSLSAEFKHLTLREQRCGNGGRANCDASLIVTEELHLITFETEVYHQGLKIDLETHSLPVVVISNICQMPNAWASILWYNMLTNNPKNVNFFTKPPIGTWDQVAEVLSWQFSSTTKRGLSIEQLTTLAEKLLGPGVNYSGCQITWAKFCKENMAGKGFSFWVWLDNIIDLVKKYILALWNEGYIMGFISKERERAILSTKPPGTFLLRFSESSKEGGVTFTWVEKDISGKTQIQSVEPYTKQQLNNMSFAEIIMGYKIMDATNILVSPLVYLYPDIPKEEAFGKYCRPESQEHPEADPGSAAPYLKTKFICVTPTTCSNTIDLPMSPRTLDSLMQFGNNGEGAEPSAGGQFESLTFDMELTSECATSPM
Chain of Signal transducer and activator of transcription 1-alpha/beta (P42224 whole entry): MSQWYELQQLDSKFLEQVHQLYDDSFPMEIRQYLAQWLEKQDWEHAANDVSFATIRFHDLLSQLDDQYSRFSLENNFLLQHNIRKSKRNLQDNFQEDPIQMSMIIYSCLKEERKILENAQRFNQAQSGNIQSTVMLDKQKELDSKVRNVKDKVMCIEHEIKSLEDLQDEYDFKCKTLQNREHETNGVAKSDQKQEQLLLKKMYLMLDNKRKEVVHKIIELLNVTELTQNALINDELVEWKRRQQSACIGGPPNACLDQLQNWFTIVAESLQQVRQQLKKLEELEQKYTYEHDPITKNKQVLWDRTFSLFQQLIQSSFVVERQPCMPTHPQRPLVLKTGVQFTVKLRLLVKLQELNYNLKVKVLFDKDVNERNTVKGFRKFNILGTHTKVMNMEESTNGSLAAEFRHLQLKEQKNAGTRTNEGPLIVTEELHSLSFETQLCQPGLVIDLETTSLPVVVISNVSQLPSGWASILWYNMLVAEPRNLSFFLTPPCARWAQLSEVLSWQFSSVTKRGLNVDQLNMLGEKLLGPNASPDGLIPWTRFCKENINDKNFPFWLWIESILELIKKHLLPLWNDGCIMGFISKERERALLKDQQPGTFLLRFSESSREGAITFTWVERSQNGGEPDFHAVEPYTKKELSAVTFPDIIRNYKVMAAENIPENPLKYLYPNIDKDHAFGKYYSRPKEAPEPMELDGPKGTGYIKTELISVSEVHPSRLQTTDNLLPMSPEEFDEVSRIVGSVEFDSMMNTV

COc1ccc(OCC(=O)NNC(=S)NC(=O)C2CC2)cc1
inactive: IC50 (Bcl-2-related protein A1 [2]) > 20 µM
> 150 µM (not active): EC50 (Streptokinase A)
active: EC50 (Streptococcus) 23.3 µM | IC50 [1] 14.8 µM | IC50 [3] 6.63 µM | EC50 [4] 7.37 µM

COc1ccc(-c2cc(N)n(S(=O)(=O)c3ccc(C(C)(C)C)cc3)n2)cc1OC
inactive: IC50 (Tumor necrosis factor) > 20 µM | IC50 [6] > 20 µM | IC50 (HEK293) > 20 µM | IC50 [9] > 20 µM
> 100 µM (not active): IC50 (Bcl-2-related protein A1 [5]) | IC50 (Bcl-2-related protein A1 [7]) | IC50 [8]

Cc1ccc(-c2nc(NC(=O)CSc3cc(C)c4ccccc4n3)ns2)cc1
active: EC50 [10] 17.9 µM | IC50 [11] 8.86 µM | IC50 [12] 27.3 µM | IC50 [13] 24.3 µM | IC50 [14] 0.77 µM | IC50 [15] 3.06 µM | IC50 [16] 1.31 µM | IC50 [17] 11.7 µM | EC50 [18] 29.1 µM | IC50 [19] 9.06 µM

O=C(C[S+]([O-])CC(=O)Nc1ccc(Cl)cc1)NCC1OCCc2ccccc21 (centres undefined)
inactive: IC50 [20] > 79.4 µM | IC50 [21] > 79.4 µM | IC50 [22] > 79.4 µM

COc1ccc(CN2CCN(c3ncnc4sc5c(c34)CCCCC5)CC2)cc1
inactive: IC50 [23] > 18.6 µM | IC50 [24] > 55.7 µM

CCC(CC)CN1CC2CCC(NC(=O)c3cc(Cl)cc(Cl)c3)C2C1 (centres undefined)
active: EC50 [25] 2.4 µM
